Test results published in patent US20090030024A1, “THIAZOLES AS FUNGICIDES” (priority 2005, published 2009).

Assay: logP determination by retention times (calibration with alkan-2-ones)
Conditions: linear gradient 10% to 95% acetonitrile
[1] = * HPLC reversed-phase C18, 40° C., mobile phase 0.1% aqueous formic acid and acetonitrile

Structure (SMILES)	chromatographic logP [1]	further results
Cc1nc(C)c(-c2ccnc(Nc3ccc(CNC(=O)OC(C)(C)C)cc3)n2)s1 [Example 625, tert-butyl-(4-{[4-(2,4-dimethyl-1,3-thiazol-5-yl)pyrimidin-2-yl]amino}benzyl)carbamate]	–	chromatographic logP (** HPLC reversed-phase C18, 43° C., mobile phase 0.1% aqueous phosphoric acid and acetonitrile): 2.7
CCc1nc(C)c(-c2ccnc(Nc3ccc(CNC(=O)OC(C)(C)C)cc3)n2)s1 [Example 632, tert-butyl-(4-{[4-(2-ethyl-4-methyl-1,3-thiazol-5-yl)pyrimidin-2-yl]amino}benzyl)carbamate]	3.26	–
Cc1nc(C(C)C)sc1-c1ccnc(Nc2ccc(CNC(=O)OC(C)(C)C)cc2)n1 [Example 633, tert-butyl-(4-{[4-(2-isopropyl-4-methyl-1,3-thiazol-5-yl)pyrimidin-2-yl]amino}benzyl)carbamate]	3.68	–
COCc1nc(C)c(-c2ccnc(Nc3cccc(CNC(=O)OC(C)(C)C)c3)n2)s1 [Example 639, tert-butyl-[3-({4-[2-(methoxymethyl)-4-methyl-1,3-thiazol-5-yl]pyrimidin-2-yl}amino)benzyl]carbamate]	2.94	–
COCc1nc(C)c(-c2ccnc(Nc3ccc(CNC(=O)OC(C)(C)C)cc3)n2)s1 [Example 643, tert-butyl-[4-({4-[2-(methoxymethyl)-4-methyl-1,3-thiazol-5-yl]pyrimidin-2-yl}amino)benzyl]carbamate]	2.99	–
COC(=O)Nc1ccc(Nc2nccc(-c3sc(N)nc3C)n2)cc1 [Example 656, methyl-(4-{[4-(2-amino-4-methyl-1,3-thiazol-5-yl)pyrimidin-2-yl]amino}phenyl)carbamate]	1.31	–
COCC(C)Nc1nc(C)c(-c2ccnc(Nc3ccc(NS(C)(=O)=O)cc3)n2)s1 (centres unmarked) [Example 657, N-{4-[(4-{2-[(2-methoxy-1-methylethyl)amino]-4-methyl-1,3-thiazol-5-yl}pyrimidin-2-yl)amino]phenyl}methanesulphonamide]	1.53	–
CNc1nc(C)c(-c2ccnc(Nc3cccc(CNC(=O)OC(C)(C)C)c3)n2)s1 [Example 658, tert-butyl-[3-({4-[4-methyl-2-(methylamine)-1,3-thiazol-5-yl]pyrimidin-2-yl}amino)benzyl]carbamate]	–	logP [1]: 1.99*
CC(=O)c1cccc(N(C(C)=O)c2nccc(-c3sc(C4CC4)nc3C)n2)c1 [Example 665, N-(3-acetylphenyl)-N-[4-(2-cyclopropyl-4-methyl-1,3-thiazol-5-yl)pyrimidin-2-yl]acetamide]	2.43	–
COc1cc(N(C(C)=O)c2nccc(-c3sc(C(C)C)nc3C)n2)cc(OC)c1OC [Example 666, N-[4-(2-isopropyl-4-methyl-1,3-thiazol-5-yl)pyrimidin-2-yl]-N-(3,4,5-trimethoxyphenyl)acetamide]	2.53	–
COc1cc(N(C(C)=O)c2nccc(-c3sc(C)nc3C)n2)cc(OC)c1OC [Example 667, N-[4-(2,4-dimethyl-1,3-thiazol-5-yl)pyrimidin-2-yl]-N-(3,4,5-trimethoxyphenyl)acetamide]	1.9	–
CCc1nc(C)c(-c2ccnc(N(C(C)=O)c3ccccc3)n2)s1 [Example 668, N-[4-(2-ethyl-4-methyl-1,3-thiazol-5-yl)pyrimidin-2-yl]-N-phenylacetamide]	2.33	–
CCc1nc(C)c(-c2ccnc(N(C(C)=O)c3cc(OC)c(OC)c(OC)c3)n2)s1 [Example 669, N-[4-(2-ethyl-4-methyl-1,3-thiazol-5-yl)pyrimidin-2-yl]-N-(3,4,5-trimethoxyphenyl)acetamide]	2.19	–
CCc1nc(C)c(-c2ccnc(N(C(C)=O)c3cccc(C(C)=O)c3)n2)s1 [Example 671, N-(3-acetylphenyl)-N-[4-(2-ethyl-4-methyl-1,3-thiazol-5-yl)pyrimidin-2-yl]acetamide]	2.23	–
COC(=O)Nc1ccc(Nc2nccc(-c3sc(C4CC4)nc3C)n2)cc1 [Example 672, methyl-(4-{[4-(2-cyclopropyl-4-methyl-1,3-thiazol-5-yl)pyrimidin-2-yl]amino}phenyl)carbamate]	2.51	–
Cc1nc(C)c(-c2ccnc(Nc3ccc(N(C)C)c(Cl)c3)n2)s1 [Example 674, 2-chloro-N4-[4-(2,4-dimethyl-1,3-thiazol-5-yl)pyrimidin-2-yl]-N1,N1-dimethylbenzene-1,4-diamine]	2	–
COCCNc1nc(C)c(-c2ccnc(Nc3ccc(F)cc3)n2)s1 [Example 677, N-(4-fluorophenyl)-4-{2-[(2-methoxyethyl)amino]-4-methyl-1,3-thiazol-5-yl}pyrimidine-2-amine]	1.9	–
COCCNc1nc(C)c(-c2ccnc(Nc3ccccc3)n2)s1 [Example 678, 4-{2-[(2-methoxyethyl)amino]-4-methyl-1,3-thiazol-5-yl}-N-phenylpyrimidine-2-amine]	1.82	–
COCCNc1nc(C)c(-c2ccnc(Nc3cc(OC)c(OC)c(OC)c3)n2)s1 [Example 679, 4-{2-[(2-methoxyethyl)amino]-4-methyl-1,3-thiazol-5-yl}-N-(3,4,5-trimethoxyphenyl)pyrimidine-2-amine]	1.74	–

Structure (SMILES)	chromatographic logP [1]	further results
COCCNc1nc(C)c(-c2ccnc(Nc3cccc(Cl)c3)n2)s1 [Example 680, N-(3-chlorophenyl)-4-{2-[(2-methoxyethyl)amino]-4-methyl-1,3-thiazol-5-yl}pyrimidine-2-amine]	2.28	–
COCCNc1nc(C)c(-c2ccnc(Nc3cccc(OC)c3)n2)s1 [Example 681, 4-{2-[(2-methoxyethyl)amino]-4-methyl-1,3-thiazol-5-yl}-N-(3-methoxyphenyl)pyrimidine-2-amine]	1.86	–
COCCNc1nc(C)c(-c2ccnc(Nc3cccc(NC(C)=O)c3)n2)s1 [Example 682, N-{3-[(4-{2-[(2-methoxyethyl)amino]-4-methyl-1,3-thiazol-5-yl}pyrimidin-2-yl)amino]phenyl}acetamide]	1.36	–
COCCNc1nc(C)c(-c2ccnc(Nc3ccc(NC(C)=O)cc3)n2)s1 [Example 683, N-{4-[(4-{2-[(2-methoxyethyl)amino]-4-methyl-1,3-thiazol-5-yl}pyrimidin-2-yl)amino]phenyl}acetamide]	1.35	–
CNc1nc(C)c(-c2ccnc(Nc3cccc(NC(C)=O)c3)n2)s1 [Example 684, N-[3-({4-[4-methyl-2-(methylamine)-1,3-thiazol-5-yl]pyrimidin-2-yl}amino)phenyl]acetamide]	–	logP [1]: 1.26*
CC(=O)c1cccc(Nc2nccc(-c3sc(N(C)C)nc3C)n2)c1 [Example 685, 1-[3-({4-[2-(dimethylamine)-4-methyl-1,3-thiazol-5-yl]pyrimidin-2-yl}amino)phenyl]ethanone]	–	logP [1]: 1.89*
Cc1nc(N(C)C)sc1-c1ccnc(Nc2cccc([N+](=O)[O-])c2)n1 [Example 686, 4-[2-(dimethylamine)-4-methyl-1,3-thiazol-5-yl]-N-(3-nitrophenyl)pyrimidine-2-amine]	–	logP [1]: 2.34*
Cc1nc(N(C)C)sc1-c1ccnc(Nc2cccc(Cl)c2)n1 [Example 687, N-(3-chlorophenyl)-4-[2-(dimethylamine)-4-methyl-1,3-thiazol-5-yl]pyrimidine-2-amine]	–	logP [1]: 2.62*
Cc1nc(N(C)C)sc1-c1ccnc(Nc2ccccc2)n1 [Example 688, 4-[2-(dimethylamine)-4-methyl-1,3-thiazol-5-yl]-N-phenylpyrimidine-2-amine]	–	logP [1]: 1.98*
COCCNc1nc(C)c(-c2ccnc(Nc3cccc(C(C)=O)c3)n2)s1 [Example 689, 1-{3-[(4-{2-[(2-methoxyethyl)amino]-4-methyl-1,3-thiazol-5-yl}pyrimidin-2-yl)amino]phenyl}ethanone]	1.69	–
COCCNc1nc(C)c(-c2ccnc(Nc3cccc(O)c3)n2)s1 [Example 690, 3-[(4-{2-[(2-methoxyethyl)amino]-4-methyl-1,3-thiazol-5-yl}pyrimidin-2-yl)amino]phenol]	1.38	–
COCCNc1nc(C)c(-c2ccnc(Nc3ccc(NS(C)(=O)=O)cc3)n2)s1 [Example 691, N-{4-[(4-{2-[(2-methoxyethyl)amino]-4-methyl-1,3-thiazol-5-yl}pyrimidin-2-yl)amino]phenyl}methanesulphonamide]	1.39	–
Cc1cc(Nc2nccc(-c3sc(N(C)C)nc3C(F)(F)F)n2)ccc1F [Example 692, 4-[2-(dimethylamine)-4-(trifluoromethyl)-1,3-thiazol-5-yl]-N-(4-fluoro-3-methylphenyl)pyrimidine-2-amine]	–	logP [1]: 4.43*
COC(=O)Nc1ccc(Nc2nccc(-c3sc(C)nc3C(F)(F)F)n2)cc1 [Example 693, methyl-[4-({4-[2-methyl-4-(trifluoromethyl)-1,3-thiazol-5-yl]pyrimidin-2-yl}amino)phenyl]carbamate]	2.7	–
COC(=O)Nc1ccc(Nc2nccc(-c3sc(N(C)C)nc3C(F)(F)F)n2)cc1 [Example 694, methyl-[4-({4-[2-(dimethylamine)-4-(trifluoromethyl)-1,3-thiazol-5-yl]pyrimidin-2-yl}amino)phenyl]carbamate]	–	logP [1]: 3.04*
CN(C)c1nc(C(F)(F)F)c(-c2ccnc(Nc3cccc(Cl)c3)n2)s1 [Example 695, N-(3-chlorophenyl)-4-[2-(dimethylamine)-4-(trifluoromethyl)-1,3-thiazol-5-yl]pyrimidine-2-amine]	–	logP [1]: 4.51*
Cc1nc(C(F)(F)F)c(-c2ccnc(Nc3ccc(O)cc3)n2)s1 [Example 696, 4-({4-[2-methyl-4-(trifluoromethyl)-1,3-thiazol-5-yl]pyrimidin-2-yl}amino)phenol]	2.39	–
CN(C)c1nc(C(F)(F)F)c(-c2ccnc(Nc3ccc(O)cc3)n2)s1 [Example 697, 4-({4-[2-(dimethylamine)-4-(trifluoromethyl)-1,3-thiazol-5-yl]pyrimidin-2-yl}amino)phenol]	–	logP [1]: 2.64*
CC(=O)Nc1ccc(Nc2nccc(-c3sc(C)nc3C(F)(F)F)n2)cc1 [Example 698, N-[4-({4-[2-methyl-4-(trifluoromethyl)-1,3-thiazol-5-yl]pyrimidin-2-yl}amino)phenyl]acetamide]	2.26	–
